pEC50: −log10 of the molar value. Where two headings read alike, the source gives them in different places. Marks after values point to notes of the source that are not given here. Ends that are not written are not given here.
Key:
[1] = tested on: adenylate cyclase in UMR 106-06 cells; settings: relative to sCT; cited from earlier work
[2] = tested on: CREB phosphorylation in mouse adult neural stem cells; type: cell-based; settings: 100 nM
[3] = tested on: CREB phosphorylation in human adult neural stem cells; type: cell-based; settings: 100 nM
[4] = tested on: NFAT-Luciferace reporter (Ca^2+)
[5] = tested on: cAMP activation in mouse adult neural stem cells; assay: cAMP detection (HitHunter EFC Cyclic AMP Chemiluminescence Assay)
[6] = tested on: mouse adult neural stem cells; assay: ATP-assay: proliferation (ATP levels) of neurosphere-derived cells; settings: for ATP (nM ATP/well) / Fold Induction ATP: 100 nM
Adult neural stem cells [7] = assay: Flow cytometry for early neuronal marker Doublecortin; settings: 100 nM; for % Doublecortin-positive cells: 4 days
[8] = target: dipeptidyl peptidase-IV (DPP-VI) (Homo sapiens, UniProt P27487); settings: in mammals; cited from earlier work
Sequence of dipeptidyl peptidase-IV (DPP-VI) (P27487 whole entry, species assumed): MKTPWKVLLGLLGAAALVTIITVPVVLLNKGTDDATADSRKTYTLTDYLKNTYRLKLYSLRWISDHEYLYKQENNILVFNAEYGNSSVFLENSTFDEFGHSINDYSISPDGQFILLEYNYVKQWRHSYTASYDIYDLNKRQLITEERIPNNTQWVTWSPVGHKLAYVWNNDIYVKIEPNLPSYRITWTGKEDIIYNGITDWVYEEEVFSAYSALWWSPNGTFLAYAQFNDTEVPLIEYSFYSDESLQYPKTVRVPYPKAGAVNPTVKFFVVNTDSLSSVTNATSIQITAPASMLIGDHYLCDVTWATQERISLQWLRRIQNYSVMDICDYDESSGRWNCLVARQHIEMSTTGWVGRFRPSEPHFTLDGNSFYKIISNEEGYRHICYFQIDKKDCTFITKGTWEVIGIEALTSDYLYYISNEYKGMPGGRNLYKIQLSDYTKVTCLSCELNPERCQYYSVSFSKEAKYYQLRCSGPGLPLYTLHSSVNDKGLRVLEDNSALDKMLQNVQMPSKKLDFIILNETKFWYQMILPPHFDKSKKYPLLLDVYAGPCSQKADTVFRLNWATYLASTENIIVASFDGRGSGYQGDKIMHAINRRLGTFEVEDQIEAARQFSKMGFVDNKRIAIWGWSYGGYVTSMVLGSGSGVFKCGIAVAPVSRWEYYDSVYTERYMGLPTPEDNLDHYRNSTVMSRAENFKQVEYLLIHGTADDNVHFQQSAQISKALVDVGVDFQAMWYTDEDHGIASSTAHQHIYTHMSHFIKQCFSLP

[9] = tested on: newborn cells (BrdU positive) in sub ventricular zone and dentate gyrus; assay: In vivo progenitor cell proliferation (BrdU); parameters: species or system Wistar rats; settings: 10 mg/kg intraperitoneally twice daily 7 days with BrdU
neural stem cells = assay: In vitro proliferation measured with ATP (Example 14); type: cell-based; parameters: cell proliferation (ATP), fold the level of control cells: dose or concentration left out as unconfirmed
Method: To determine proliferation, neurospheres were split and seeded in Neurosphere medium as single cells in 96-well plates, at 10,000 cells/well. The following experiment was performed in sets of four parallel experiments (i.e., performed in quadruplicate) such that the cells may be used for different assays. Substances to be tested were added and cells were incubated at 37° C. for 4 days. Cells were lysed with 0.1 % Triton-X100 in Tris-EDTA buffer. Intracellular ATP was measured using an ATP-SL kit according to the manufacturer's instructions (BioThema, Sweden).

[10] = tested on: cAMP activation in mouse adult neural stem cells; settings: 0.1 µM
[11] = tested on: mouse adult neural stem cells; settings: 0.1 µM
Adult neural stem cells [12] = settings: 0.1 µM

Which “potency in activating adenylate cyclase” value [1] does the source give for “CSNLSTCVLGRLSKDLHRLQTFPRTNTGAGVP (cysteine pairing not given here) [[Arg11, 18, Lys14]-sCT]” here?
Its value is “equivalent to that of sCT”.

For “PACAP: pituitary adengate cyclase activating peptide, cAMP activator (HSDGIFTDSYSRYRKQMAVKKYLAAVLGKRYKQRVKNK; ends and bridges not checked; UniProt P18509 132-169, looked up)”, which CREB phosphorylation ([2]; mouse adult neural stem cells, time course 15 minutes to 8 hours) is on record?
Its CREB phosphorylation is “up-regulation of CREB phosphorylation”.

And the CREB phosphorylation ([3]; human adult neural stem cells, time course 15 minutes to 8 hours)?
The CREB phosphorylation was “up-regulation of CREB phosphorylation”.

What does the source list for cholera toxin?
Fold Induction NFAT ([4]; 100 nM): 1.4** fold; NFAT Luciferace units ([4]; 100 nM): 11.6 ± 1.0 Luciferace units; cAMP (pmol/well) [5]: 0.07 ± 0.01 pmol/well; Fold Induction cAMP ([5]; 10 nM): 3.1*** fold; proliferation of neural stem cells [6]: increase; ATP (nM ATP/well) [6]: 12.9 ± 1.6 nM ATP/well; Fold Induction ATP [6]: 1.4* fold; Fold Induction ATP ([6]; 4 days): 1.4* fold; CREB phosphorylation [2]: up-regulation of CREB phosphorylation; CREB phosphorylation [3]: up-regulation of CREB phosphorylation; Fold Induction (Doublecortin-positive cells) (Adult neural stem cells [7]): 2.6 fold; % Doublecortin-positive cells (Adult neural stem cells [7]): 6.7%

With “His-Asp-Glu-Phe-Glu-Arg-His-Ala-Glu-Gly-Thr-Phe-Thr-Ser-Asp-Val-Ser-Ser-Tyr-Leu-Glu-Gly-Gln-Ala-Ala-Lys-Glu-Phe-Ile-Ala-Trp-Leu-Val-Lys-Gly-Arg-Gly [GLP-1]” as the compound, how does the halftime of degradation [8] read?
The halftime of degradation was “less than 2 min”.

With CC[C@H](C)[C@H](NC(=O)[C@H](C)NC(=O)[C@@H](NC(=O)[C@H](CCC(N)=O)NC(=O)[C@@H]1CCCN1C(=O)[C@H](Cc1ccccc1)NC(=O)[C@@H](NC(=O)[C@H](Cc1c[nH]cn1)NC(=O)[C@H](Cc1ccccc1)NC(=O)[C@H](CCCCN)NC(=O)[C@H](CC(N)=O)NC(=O)[C@H](Cc1ccccc1)NC(=O)[C@H](CC(=O)O)NC(=O)[C@H](CCC(N)=O)NC(=O)[C@@H](NC(=O)[C@H](Cc1ccc(O)cc1)NC(=O)[C@@H](NC(=O)CNC(=O)[C@H](CC(C)C)NC(=O)[C@H](CCSC)NC(=O)[C@@H]1CSSC[C@H](N)C(=O)NCC(=O)N[C@@H](CC(N)=O)C(=O)N[C@@H](CC(C)C)C(=O)N[C@@H](CO)C(=O)N[C@@H]([C@@H](C)O)C(=O)N1)[C@@H](C)O)[C@@H](C)O)[C@@H](C)O)[C@@H](C)O)C(=O)NCC(=O)N[C@H](C(=O)NCC(=O)N[C@@H](C)C(=O)N1CCC[C@H]1C(N)=O)C(C)C [calcitonin] as the compound, how does the “number of newborn cells (BrdU positive compared to sham injected)” value [9] read?
The value was “significant increase”.

And the “cell proliferation (ATP), fold the level of control cells” value (neural stem cells; 4 days)?
The value was 2.5 fold.

And the pEC50 (neural stem cells; neural stem cell cultures, read-out: EC50 value (proliferation dose-response curve, FIG. 3))?
Its pEC50 is 10.52.

With CC[C@H](C)[C@H](NC(=O)[C@H](CCC(N)=O)NC(=O)[C@H](Cc1c[nH]cn1)NC(=O)[C@H](C)NC(=O)[C@H](CC(C)C)NC(=O)[C@H](CCCCN)NC(=O)[C@H](CCC(N)=O)NC(=O)[C@@H](NC(=O)[C@@H](NC(=O)[C@@H]1CSSC[C@H](NC(=O)CNC(=O)[C@H](Cc2ccccc2)NC(=O)[C@H](CO)NC(=O)[C@H](CCCNC(=N)N)NC(=O)[C@H](CC(C)C)NC(=O)CNC(=O)[C@H](CCC(N)=O)NC(=O)[C@H](Cc2ccccc2)NC(=O)[C@H](CC(N)=O)NC(=O)[C@H](CC(N)=O)NC(=O)[C@H](CCSC)NC(=O)[C@H](CO)NC(=O)[C@H](CCC(N)=O)NC(=O)[C@H](CCCNC(=N)N)NC(=O)[C@@H](N)Cc2ccc(O)cc2)C(=O)N[C@@H](CCCNC(=N)N)C(=O)N[C@@H](Cc2ccccc2)C(=O)NCC(=O)N[C@@H]([C@@H](C)O)C(=O)N1)[C@@H](C)O)C(C)C)C(=O)N[C@@H](Cc1ccc(O)cc1)C(=O)N[C@@H](CCC(N)=O)C(=O)N[C@@H](Cc1ccccc1)C(=O)N[C@H](C(=O)N[C@@H](CC(=O)O)C(=O)N[C@@H](CCCCN)C(=O)N[C@@H](CC(=O)O)C(=O)N[C@@H](CCCCN)C(=O)N[C@@H](CC(=O)O)C(=O)N[C@@H](CC(N)=O)C(=O)N[C@H](C(=O)N[C@@H](C)C(=O)N1CCC[C@H]1C(=O)N[C@@H](CCCNC(=N)N)C(=O)N[C@@H](CO)C(=O)N[C@@H](CCCCN)C(=O)N[C@H](C(=O)N[C@@H](CO)C(=O)N1CCC[C@H]1C(=O)N[C@@H](CCC(N)=O)C(=O)NCC(=O)N[C@@H](Cc1ccc(O)cc1)C(N)=O)[C@@H](C)CC)C(C)C)[C@@H](C)O [Adrenomedullin (human)] as the compound, how does the “Fold Induction NFAT” value ([4]; 0.1 µM) read?
The value was 2.2** fold.

And the “NFAT Luciferace units” value ([4]; Table 4, 100 nM, 24 hours after induction)?
Its value is 12.4 ± 0.9 Luciferace units.

What about the “Fold Induction cAMP” value [10] of the same compound?
The value was 2.5** fold.

What about the “cAMP (pmol/well)” value ([5]; Table 2, 100 nM (cAMP concentration)) of the same compound?
Its value is 0.15 ± 0.3 pmol/well.

What about the “ATP (nM ATP/well)” value ([6]; Table 2, 4 days) of the same compound?
Its value is 11.6 ± 0.8 nM ATP/well.

And the “ATP (nM ATP/well)” value ([6]; Table 4)?
The value was 11.6 ± 0.8 nM ATP/well.

What about the “Fold Induction ATP” value [11] of the same compound?
The value was 1.1* fold.

And the “Fold Induction (Doublecortin-positive cells)” value (Adult neural stem cells [12])?
Its value is 1.6 fold.

What about the “% Doublecortin-positive cells” value (Adult neural stem cells [7]; Table 6) of the same compound?
The value was 4.2%.

From patent US6969702B2, “Compounds and methods for increasing neurogenesis” (priority 2002, dated 2005)
